PMC8092108, “Mycophenolate suppresses inflammation by inhibiting prostaglandin synthases: a study of molecular and experimental drug repurposing” (PeerJ, 2021)
“And” between values parts separate entries of the source, which are not always exact repeats. Identical values can stand only once.

Experiments:
[1] = tested on: carrageenan-induced paw edema; test: Carrageenan-induced rat paw edema test; format: in vivo; design: key to Tukey's test Summary: Significant (s); non-significant (ns); details: for Tukey's test Significant? / Tukey's test Summary: mean paw size 3–5 h; for Rat paw size: individual rats 1-7
Experimental: The in vivo assay was performed by the rat paw edema inhibition test as previously described ([Morris, 2003]; [Winter, Risley & Nuss, 1962]). Forty-nine male adult albino rats weighing […] were obtained from the Animal Breeding Center at the College of Veterinary Medicine, King Faisal University, and were randomly divided into seven groups (n = 7/group). The animal groups included the nontreated control group, carrageenan group, and five groups receiving carrageenan and treated with either indomethacin, celecoxib, or MMF at three doses (12.5, 25, and 50 mg/kg). All rats were allowed free access to food and water. All cages were kept in controlled rooms at 25 °C and exposed to a 12-h light/dark cycle. MMF and two reference drugs, indomethacin and celecoxib, were suspended in 1% NaCMC in normal saline. A 1% carrageenan solution in normal saline was injected into the subplantar area of the right hind paw of rats. One hour before injection of carrageenan, rats were given either indomethacin or celecoxib at a dose rate of 10 mg/kg or MMF at three dose levels of 12.5, 25, and 50 mg/kg by oral administration. […] The measurements were blind to avoid measurement bias. The King Faisal University Ethics Committee (approval no. KFU-REC/2020-10-11) approved all animal experiments. Since no samples were taken from rats, there were no anesthesia procedures. The size of the hind paw was only measured in non-anesthetized rats. At the end of the experiment, all rats were euthanized according to the regulations of the King Faisal University Ethics Committee by an overdose of pentobarbital (200 mg/kg IP) and decapitation. The effect of MMF at different doses on relieving rat paw edema was compared with the control and standard NSAID-treated groups. Significant differences were determined by one-way analysis of variance (ANOVA) with Tukey’s post hoc test. All steps were implemented using GraphPad prism software (GraphPad Software, La Jolla, CA, USA).

[2] = tested on: atopic dermatitis and vitiligo; details: cited from earlier work
[3] = cited from earlier work
[4] = Indomethacin vs. MMF 12.5 mg/kg

Structure (SMILES): COc1c(C)c2c(c(O)c1C/C=C(\C)CCC(=O)OCCN1CCOCC1)C(=O)OC2 [Mycophenolate mofetil]
- Rat paw size at 3, 4 and 5 h after treatment ([1]; 12.5, 25, 50 mg/kg MMF): dose-dependent decrease in edema
- Rat paw edema 2–5 h after drug administration ([1]; 12.5, 25 and 50 mg/kg MMF oral): significant decrease
- Tukey's test Significant? ([1]; Carrageenan vs. MMF 12.5 mg/kg): Yes
- Tukey's test Summary ([1]; Carrageenan vs. MMF 12.5 mg/kg): s
- Tukey's test Significant? ([1]; Carrageenan vs. MMF 25 mg/kg): Yes
- Tukey's test Summary ([1]; Carrageenan vs. MMF 25 mg/kg): s
- Tukey's test Significant? ([1]; Carrageenan vs. MMF 50 mg/kg): Yes
- Tukey's test Summary ([1]; Carrageenan vs. MMF 50 mg/kg): s
- Tukey's test Significant? ([1]; Celecoxib vs. MMF 12.5 mg/kg): No
- Tukey's test Summary ([1]; Celecoxib vs. MMF 12.5 mg/kg): ns
- Tukey's test Significant? ([1]; Celecoxib vs. MMF 25 mg/kg): No
- Tukey's test Summary ([1]; Celecoxib vs. MMF 25 mg/kg): ns
- Tukey's test Significant? ([1]; Celecoxib vs. MMF 50 mg/kg): No
- Tukey's test Summary ([1]; Celecoxib vs. MMF 50 mg/kg): ns
- Tukey's test Significant? [1, 4]: No
- Tukey's test Summary [1, 4]: ns
- Tukey's test Significant? ([1]; Indomethacin vs. MMF 25 mg/kg): No
- Tukey's test Summary ([1]; Indomethacin vs. MMF 25 mg/kg): ns
- Rat paw size ([1]; MMF 12.5 mg Kg oral, Time (h) 1): 0.75 cm (3×) and 0.73 cm (3×) and 0.7 cm
- Rat paw size ([1]; MMF 12.5 mg Kg oral, Time (h) 2): 0.75 cm (3×) and 0.76 cm (3×) and 0.8 cm
- Rat paw size ([1]; MMF 12.5 mg Kg oral, Time (h) 3): 0.75 cm and 0.8 cm
- Rat paw size ([1]; MMF 25 mg/Kg oral, Time (h) 1): 0.74 cm (2×) and 0.75 cm (4×) and 0.77 cm
- Rat paw size ([1]; MMF 25 mg/Kg oral, Time (h) 2): 0.7 cm (3×) and 0.65 cm and 0.71 cm and 0.75 cm and 0.69 cm
- Rat paw size ([1]; MMF 25 mg/Kg oral, Time (h) 3): 0.59 cm and 0.6 cm and 0.55 cm (2×) and 0.5 cm and 0.65 cm and 0.57 cm
- Rat paw size ([1]; MMF 25 mg/Kg oral, Time (h) 4): 0.46 cm and 0.5 cm (2×) and 0.45 cm (2×) and 0.47 cm and 0.48 cm
- Rat paw size ([1]; MMF 25 mg/Kg oral, Time (h) 5): 0.45 cm (5×) and 0.5 cm and 0.4 cm
- Rat paw size ([1]; MMF 25 mg/Kg oral, Time (h) 6): 0.57 cm and 0.6 cm (2×) and 0.5 cm and 0.65 cm and 0.55 cm and 0.54 cm
- Rat paw size ([1]; MMF 50mg/kg oral, Time (h) 1): 0.75 cm
- Rat paw size ([1]; MMF 50mg/kg oral, Time (h) 2): 0.75 cm and 0.7 cm (3×) and 0.65 cm and 0.66 cm and 0.68 cm
- Rat paw size ([1]; MMF 50mg/kg oral, Time (h) 3): 0.65 cm (2×) and 0.6 cm (2×) and 0.55 cm and 0.62 cm and 0.58 cm
- Rat paw size ([1]; MMF 50mg/kg oral, Time (h) 4): 0.55 cm (2×) and 0.5 cm (2×) and 0.52 cm and 0.53 cm and 0.51 cm
- Rat paw size ([1]; MMF 50mg/kg oral, Time (h) 5): 0.45 cm (3×) and 0.5 cm and 0.46 cm (3×)
- Rat paw size ([1]; MMF 50mg/kg oral, Time (h) 6): 0.6 cm (3×) and 0.5 cm and 0.65 cm and 0.56 cm and 0.58 cm
- Rat paw edema after treatment ([1]; MMF 12.5–50 mg/kg, indomethacin or celecoxib 10 mg/kg oral): significantly relieved
- Most effective dose in the rat paw edema test ([1]; oral): 50 mg/kg
- Treatment of atopic dermatitis ([2]; oral 1–2 g daily for 12 weeks, ref Grundmann-Kollmann et al., 2001, Neuber et al., 2000): highly effective
- Tolerability of high topical concentration ([2]; topical 15% MMF, ref Handjani et al., 2017): well tolerated
- Treatment of vitiligo ([2]; topical application of 15% MMF, ref Handjani et al., 2017): highly effective
- Maximal serum concentration (Cmax) ([3]; after 1–2 g oral doses, ref Ferreira et al., 2020): 18000 to 20000 ng/mL
- Conversion to MPA by liver carboxylesterases 1 and 2 ([3]; after oral intake, ref Lamba et al., 2014): completely converted to MPA
